A short description of data set [1]: 7-day stability tests of the salt (XRPD, HPLC purity). The format is physicochemical. The conditions noted are these: for Purity (%) by HPLC after 7-day stability test: 7 days. On the procedure: 7-day stability tests were carried out as follows: 15 mg of salt was weighed into x3 2 mL vials. The vials were then placed at 40° C./75% RH, 80° C. and under ambient light; after 1 week, the solids were analysed by XRPD and HPLC purity (method A).

The nature of data set [2]: Solubility assessment in unbuffered water and pH buffers. The format is physicochemical. The conditions noted are these: solution in unbuffered water. As for the experimental part: 100 μL of the appropriate buffer was added to form a slurry.
For a further data set, the system named is α-syn aggregation. Kind of data set: α-synuclein aggregation in TH(+) neurons after rotenone injury. Type of data set: cell-based, rat. The conditions noted are these: rotenone 10 nM 24 h. As for the experimental part:
Rat dopaminergic neurons were cultured as described by Visanji et al. in FASEB J. 2008, 22(7): 2488-2497 and Callizot et al., in Plos One 2019: https://doi.org/10.1371/journal.pone.0215277. Briefly, pregnant female rat (Wistar) of 15 days of gestation were killed using a deep anesthesia with CO2 chamber and a cervical dislocation. The midbrains obtained from 15-day-old rat embryos (Janvier, France) were dissected under a microscope. The embryonic midbrains were removed and placed in ice-cold medium of Leibovitz (L15) containing 2% of Penicillin-Streptomycin (PS) and 1% of BSA. The ventral portion of the mesencephalic flexure, a region of the developing brain rich in dopaminergic neurons, were used for the cell preparations. The midbrains were dissociated by trypsinization for 20 min at 37° C. (solution at a final concentration of 0.05% trypsin and 0.02% EDTA). The reaction was stopped by the addition of DMEM containing DNAase I grade II (0.5 mg/mL) and 10% of FCS. […] Viable cells were counted in a Neubauer cytometer using the trypan blue exclusion test. […]
The following read-outs were investigated: • neuron survival: total number of TH neurons (TH staining), • neurite network: total length of neurite network of TH positive neurons (in μm) • α-syn aggregation (area of overlapping between TH and α-syn staining in μm^2) […]

Data set [3] can be described thus: Variable humidity XRPD (VH-XRPD). The format is physicochemical. The conditions noted are these: exposure to 90% RH for up to 1 hour and 30 minutes. On the procedure:
VH-XRPD analysis was carried out on a Philips X'Pert Pro Multipurpose diffractometer equipped with a humidity chamber. The samples were scanned between 4 and 35.99° 20 using Cu K radiation (α1 λ=1.54060 Å; α2=1.54443 Å; β=1.39225 Å; α1: α2 ratio=0.5) running in Bragg-Brentano geometry (step size 0.008 °2θ) using 40 kV/40 mA generator settings. Measurements were performed at 50%, 60%, 70%, 80%, 90%. The sample was held at 90% for an hour and 30 minutes. Measurements were taken at 30-minute intervals.

Consider “N-(3-(4-(3-(diisobutylamino)propyl)piperazin-1-yl)propyl)-1H-benzo[d]imidazol-2-amine sesqui-succinate salt [sesqui-succinate salt Form 1]”, for which the “XRPD crystallinity or form after 7-day stability tests” value in data set [1] (40° C./75% RH, 80° C. and ambient light) is “no change to crystallinity or form”. For the same substance, the figures for the “Purity (%) by HPLC after 7-day stability test” value in data set [1] (40° C./75% RH), in data set [1] (80° C.) and in data set [1] (Ambient Light) were 98.5%, 98.3% and 98.4%, respectively. Further, the “change in HPLC purity after 7-day stability test” value in data set [1] (each stability condition) is “no change in purity”. The same substance showed a pH measurement in data set [2] of 5.28. In addition, the α-syn aggregation entry with α-syn aggregation (100 nM co-administered) is given as “prevented”; in the data set with α-syn aggregation (pre-incubated or applied directly with rotenone, 10 to 100 nM) it was “significantly reduced”. Further, the VH-XRPD crystalline form result in data set [3] is reported as “no change to crystallinity or form”.

These data come from patent US20230391729A1, “SUCCINATE SALTS OF N-(3-(4-(3-(DIISOBUTYLAMINO)PROPYL)PIPERAZIN-1-YL)PROPYL)-1H-BENZO[D]IMIDAZOL-2-AMINE, PREPARATION THEREOF AND USE OF THE SAME” (ALZPROTECT, priority 2020, published 2023).
